Measurements taken from patent publication US20070244007A1, “Cis-Alkoxyspiro-Substituted Tetramic Acid Derivatives” (BAYER CROPSCIENCE AG, priority 2004, published 2007).

Legend:
Type in all cases: in vivo
[1] = test system: Summer barley; experiment: Container trials with cereals outdoors, post-emergence, Mefenpyr in tank mix; conditions: 120 g of a.i./ha, without safener
Experimental: (§1) 1. Herbicidal Post-Emergence Action
(§2) Seeds of monocotyledonous and dicotyledonous weed and crop plants are placed in sandy loam in wood fibre pots or in plastic pots, covered with soil and cultivated in a greenhouse, during the vegetation period also outdoors outside of the greenhouse, under good growth conditions. 2-3 weeks after sowing, the test plants are treated at the one- to three-leaf stage. The test compounds, formulated as wettable powders (WP) or emulsifiable concentrates (EC) are, in various dosages with a water application rate of 300 l/ha (converted), with wetting agent (0.2 to 0.3%) added, sprayed onto the plants and the surface of the soil. 3-4 weeks after the treatment of the test plants, the effect of the preparations is rated visually in comparison to untreated controls (herbicidal effect in per cent (%): 100% effect=the plants have died, 0% effect=like control plants).
(§3) If it is additionally to be tested whether safeners can improve the plant compatibility of test substances in the case of crop plants, the following options are used for applying the safener: • seeds of the crop plants are, before sowing, dressed with the safener substance (the amount of safener is stated in per cent, based on the weight of the seed) • before the application of the test substances, the crop plants are sprayed with the safener at a certain application rate per hectar (usually 1 day before the application of the test substances) • the safener is applied together with the test substance as a tank mix (the amount of safener is stated in g/ha or as a ratio, based on the herbicide).
(§4) By comparing the effect of test substances on crop plants with or without safener treatment, it is possible to assess the effect of the safener substance.
(§5) Container Trials with Cereals Outdoors (Outside the Greenhouse/“Bird Cage”) Mefenpyr in Tank Mix

[2] = test system: Summer wheat; experiment: as above; conditions: 120 g of a.i./ha, without safener
Experimental: as §1, §2, §3, §4, §5

[3] = test system: Summer barley; experiment: Container trials with cereals in the greenhouse, post-emergence, Mefenpyr applied 1 day prior to herbicide; conditions: 50 g of a.i./ha, without safener
Experimental: as §1
as §2, with “plants). […]” for “plants).”

[4] = test system: larvae of the mustard beetle (Phaedon cochleariae); experiment: Phaedon Test (spray treatment); conditions: 100 g/ha, Chinese cabbage discs
Experimental: [[[…]]] To produce a suitable preparation of active compound, 1 part by weight of active compound is mixed with the stated amounts of solvents and emulsifier, and the concentrate is diluted with emulsifier-containing water to the desired concentration. Discs of Chinese cabbage (Brassica pekinensis) are sprayed with a preparation of active compound of the desired concentration and, after they have dried, populated with larvae of the mustard beetle (Phaedon cochleariae).

[5] = test system: Alopecurus; experiment: Herbicidal post-emergence action, greenhouse; conditions: 320 g a.i./ha, about 3 weeks
Experimental: (§6) 2. Herbicidal Post-Emergence Action
(§7) Seeds of monocotyledonous and dicotyledonous weed and crop plants are placed into sandy loam in wood fibre pots, covered with soil and cultivated in a greenhouse under good growth conditions. 2-3 weeks after sowing, the test plants are treated at the one-leaf stage. The test compounds, formulated as wettable powders (WP), are, in various dosages with a water application rate of 600 l/ha (converted), with 0.2% of wetting agent added, sprayed onto the green parts of the plants. After the test plants were kept in the greenhouse under optimum growth conditions for about 3 weeks, the effect of the preparations is rated visually in comparison to untreated controls (herbicidal effect in per cent (%): 100% effect=the plants have died, 0% effect=like control plants).

[6] = test system: Setaria; experiment: Herbicidal post-emergence action, greenhouse; conditions: 320 g a.i./ha, about 3 weeks
Experimental: as §6, §7

[7] = test system: Lolium; experiment: Herbicidal post-emergence action, greenhouse; conditions: 320 g a.i./ha, about 3 weeks
Experimental: as §6, §7

[8] = test system: Agropyron; experiment: Herbicidal post-emergence action, greenhouse; conditions: 320 g a.i./ha, about 3 weeks
Experimental: as §6, §7

[9] = test system: Avena; experiment: Herbicidal post-emergence action, greenhouse; conditions: 320 g a.i./ha, about 3 weeks
Experimental: as §6, §7

[10] = test system: Sugar-beets; experiment: Herbicidal post-emergence action, greenhouse; conditions: 320 g a.i./ha, about 3 weeks
Experimental: as §6, §7

[11] = test system: green peach aphid (Myzus persicae); experiment: Myzus Test (spray treatment); conditions: 100 g/ha, Chinese cabbage discs
Experimental: (§8) To produce a suitable preparation of active compound, 1 part by weight of active compound is mixed with the stated amounts of solvents and emulsifier, and the concentrate is diluted with emulsifier-containing water to the desired concentration.
Discs of Chinese cabbage (Brassica pekinensis) which are infested by all stages of the green peach aphid (Myzus persicae) are sprayed with a preparation of active compound of the desired concentration.
After the desired period of time, the activity in % is determined. 100% means that all aphids have been killed; 0% means that none of the aphids have been killed.

[12] = test system: Alopecurus; experiment: Herbicidal pre-emergence action, greenhouse; conditions: 320 g a.i./ha, 3 weeks
From the text: (§9) 1. Herbicidal Pre-Emergence Action
(§10) Seeds of monocotyledonous and dicotyledonous weed and crop plants are placed into sandy loam in wood fibre pots and covered with soil. The test compounds, formulated in the form of wettable powders (WP), are then, in various dosages as aqueous suspension with a water application rate of 600 l/ha (converted), with 0.2% of wetting agent added, applied to the surface of the covering soil.
(§11) After the treatment, the pots are placed in a greenhouse and kept under good growth conditions for the test plants. The visual assessment of the emergence damage on the test plants is carried out after a trial period of 3 weeks by comparison with untreated plants (herbicidal effect in per cent (%): 100% effect=the plants have died, 0% effect=like control plants).

[13] = test system: Setaria; experiment: Herbicidal pre-emergence action, greenhouse; conditions: 320 g a.i./ha, 3 weeks
From the text: as §9, §10, §11

[14] = test system: Lolium; experiment: Herbicidal pre-emergence action, greenhouse; conditions: 320 g a.i./ha, 3 weeks
From the text: as §9, §10, §11

[15] = test system: Agropyron; experiment: Herbicidal pre-emergence action, greenhouse; conditions: 320 g a.i./ha, 3 weeks
From the text: as §9, §10, §11

[16] = test system: Avena; experiment: Herbicidal pre-emergence action, greenhouse; conditions: 320 g a.i./ha, 3 weeks
From the text: as §9, §10, §11

[17] = test system: Sugar-beets; experiment: Herbicidal pre-emergence action, greenhouse; conditions: 320 g a.i./ha, 3 weeks
From the text: as §9, §10, §11

[18] = test system: greenhouse red spider mite (Tetranychus urticae); experiment: Tetranychus Test (OP-resistant/spray treatment); conditions: 100 g/ha; bean leaf discs, spray, OP-resistant
Experimental: as §8
Discs of bean leaves (Phaseolus vulgaris) which are infested by all stages of the greenhouse red spider mite (Tetranychus urticae) are sprayed with a preparation of active compound of the desired concentration.
After the desired period of time, the activity in % is determined. 100% means that all spider mites have been killed; 0% means that none of the spider mites have been killed.

[19] = test system: Meloidogyne incognita; experiment: Meloidogyne Test (nematicidal action, gall formation on lettuce roots); conditions: 20 ppm active compound; 100% = no galls
Experimental: To produce a suitable preparation of active compound, 1 part by weight of active compound is mixed with the stated amounts of solvent and emulsifier, and the concentrate is diluted with water to the desired concentration.
Vessels are filled with sand, solution of active compound, Meloidogyne incognita egg/larvae suspension and lettuce seeds. The lettuce seeds germinate and the plants develop. On the roots, the galls develop.
After the desired period of time, the nematicidal action is determined in % by the formation of galls. 100% means that no galls have been found; 0% means that the number of galls on the treated plants corresponds to that of the untreated control.

Row | Compound | Summer barley observed (%) [1] | Summer wheat observed (%) [2] | Summer barley observed (%) [3] | Kill rate in % after 7d [4] | herbicidal effect, Alopecurus [5] | herbicidal effect, Setaria [6] | herbicidal effect, Lolium [7] | herbicidal effect, Agropyron [8] | herbicidal effect, Avena [9] | herbicidal effect, Sugar-beets [10] | Kill rate in % after 5d [11] | herbicidal effect, Alopecurus [12] | herbicidal effect, Setaria [13] | herbicidal effect, Lolium [14] | herbicidal effect, Agropyron [15] | herbicidal effect, Avena [16] | herbicidal effect, Sugar-beets [17] | Kill rate in % after 5d [18] | Effect in % after 14d [19]
1 | CCc1cc(Br)cc(C)c1C1=C(O)[C@]2(CC[C@H](OC)CC2)NC1=O [Ex. I-a-1] | 35% | 30% |  |  |  |  |  |  |  |  |  |  |  |  |  |  |  |  | 
2 | CCc1cc(Br)cc(CC)c1C1=C(OC(=O)COC)[C@]2(CC[C@H](OC)CC2)NC1=O [Ex. I-b-1] |  |  | 50% |  |  |  |  |  |  |  |  |  |  |  |  |  |  |  | 
3 | CCOC(=O)OC1=C(c2c(C)cc(Br)cc2CC)C(=O)N[C@]12CC[C@@H](OC)CC2 [Ex. I-c-1] | 35% | 20% |  | 83% | 100% | 100% | 100% | 100% | 100% | 0% | 90% | 100% | 100% | 100% | 100% | 97% | 0% | 70% | 90%
